From US10407407B2, “Benzoimidazole derivatives as PAD4 inhibitors” (GLAXOSMITHKLINE INTELLECTUAL PROPERTY DEVELOPMENT LIMITED, priority 2015, dated 2019) come the findings set out here.

The target in test [1] is T1, Recombinant human PAD4 (residues 1-663) (Homo sapiens, UniProt Q9UM07).
T1 construct: Recombinant human PAD4 (residues 1-663) was expressed in E. coli as an N-terminal GST-tagged fusion protein; GST (N, cleaved yes); made in house; host or cells: E. coli
Put plainly: PAD4 enzyme assay (FLINT NH3 release, BAEE substrate; conditions A or B). The format is biochemical. Conditions: PAD4 enzyme assay above or similar assays; read-out: mean pIC50 (converted). As for the experimental part:
During purification of the protein, the GST tag was removed by cleavage with PreScission Protease (GE Healthcare). Activity of the final PAD4 enzyme and batch consistency was determined by employing the enzyme in the FLINT NH3 release assay in the presence of N-a-benzoyl-L-arginine ethyl ester (BAEE) substrate and measuring the levels of NH3 release at a known substrate/enzyme concentration.
(§1) 8 μl of PAD4 enzyme diluted to an assay concentration of 75 nm in assay buffer (a): (100 mM HEPES, 50 mM NaCl, 2 mM DTT and 0.6 mg/ml BSA pH 8), or in assay buffer (b): (100 mM HEPES, 50 mM NaCl, 2 mM DTT, 7.5% glycerol and 1.5 mM CHAPS pH 8), and added to wells containing 0.1 μl of various concentrations of compound or DMSO vehicle (0.8% final) in a Greiner high volume 384 well black plate. Following 30 mins pre-incubation at rt, the reaction was initiated by the addition of 4 μl of substrate buffer containing 3 mM N-a-benzoyl-L-arginine ethyl ester (BAEE), 100 mM HEPES, 50 mM NaCl, 600 uM CaCl2 (2H2O) and 2 mM DTT, pH 8.0. The reaction was stopped after 100 mins with the addition of 38 μl stop/detection buffer containing 50 mM EDTA, 2.6 mM phthalaldehyde and 2.6 mM DTT.
as §1, with “of 30 nM” for “of 75 nm”, “buffer” for “buffer (a):”, “BSA” for “BSA pH 8), or in assay buffer (b): (100 mM HEPES, 50 mM NaCl, 2 mM DTT, 7.5% glycerol and 1.5 mM CHAPS”, “after 60” for “after 100”

Test [2] addresses T2, Recombinant human PAD2 (residues 1-665) (Homo sapiens, UniProt Q9Y2J8).
T2 construct: Recombinant human PAD2 (residues 1-665) was expressed in baculovirus-infected Sf9 insect cells; 6His-FLAG (N); made in house; host or cells: baculovirus-infected Sf9 insect cells
The experiment in a line: PAD2 enzyme assay (FLINT NH3 release, BAEE substrate). To be noted: PAD2 enzyme assay above or similar assays; to assess selectivity for PAD4 over PAD2; read-out: mean pIC50 (converted). The format is biochemical. As for the experimental part: Activity of the final product was determined using a FLINT NH3 release assay.
8 μl of PAD2 enzyme diluted to an assay concentration of 30 nM in assay buffer (100 mM HEPES, 50 mM NaCl, 2 mM DTT, 7.5% glycerol and 1.5 mM CHAPS pH 8), and added to wells containing 0.1 μl of various concentrations of compound or DMSO vehicle (0.8% final) in a Greiner high volume 384 well black plate. […] The reaction was stopped after 90 mins with the addition of […] stop/detection buffer containing 50 mM EDTA, 2.6 mM phthalaldehyde and 2.6 mM DTT.

Each structure is given as a SMILES string. Where “and” joins values, the source holds several entries; their conditions need not be identical. Equal entries are not always repeated.

T1 sequence (Q9UM07 whole entry, the tested form may be a part): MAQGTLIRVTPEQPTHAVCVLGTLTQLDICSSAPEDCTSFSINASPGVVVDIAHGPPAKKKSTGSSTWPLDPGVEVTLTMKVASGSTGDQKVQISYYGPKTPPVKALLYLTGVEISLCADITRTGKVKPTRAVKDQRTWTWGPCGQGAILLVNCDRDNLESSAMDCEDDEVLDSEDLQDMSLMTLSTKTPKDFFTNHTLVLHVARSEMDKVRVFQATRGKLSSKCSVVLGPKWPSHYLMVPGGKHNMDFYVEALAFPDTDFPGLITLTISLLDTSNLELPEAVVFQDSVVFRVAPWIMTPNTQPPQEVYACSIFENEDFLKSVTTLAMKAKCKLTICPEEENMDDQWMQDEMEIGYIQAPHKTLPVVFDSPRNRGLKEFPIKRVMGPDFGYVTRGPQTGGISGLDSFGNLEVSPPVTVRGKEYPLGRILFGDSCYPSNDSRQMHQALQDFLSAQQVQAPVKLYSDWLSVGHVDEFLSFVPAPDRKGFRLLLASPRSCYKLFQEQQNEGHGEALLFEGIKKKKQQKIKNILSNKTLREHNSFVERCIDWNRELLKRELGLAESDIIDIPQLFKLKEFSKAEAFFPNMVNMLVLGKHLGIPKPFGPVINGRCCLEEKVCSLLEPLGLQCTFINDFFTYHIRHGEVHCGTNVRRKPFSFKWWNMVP
T2 sequence (Q9Y2J8 whole entry, the tested form may be a part): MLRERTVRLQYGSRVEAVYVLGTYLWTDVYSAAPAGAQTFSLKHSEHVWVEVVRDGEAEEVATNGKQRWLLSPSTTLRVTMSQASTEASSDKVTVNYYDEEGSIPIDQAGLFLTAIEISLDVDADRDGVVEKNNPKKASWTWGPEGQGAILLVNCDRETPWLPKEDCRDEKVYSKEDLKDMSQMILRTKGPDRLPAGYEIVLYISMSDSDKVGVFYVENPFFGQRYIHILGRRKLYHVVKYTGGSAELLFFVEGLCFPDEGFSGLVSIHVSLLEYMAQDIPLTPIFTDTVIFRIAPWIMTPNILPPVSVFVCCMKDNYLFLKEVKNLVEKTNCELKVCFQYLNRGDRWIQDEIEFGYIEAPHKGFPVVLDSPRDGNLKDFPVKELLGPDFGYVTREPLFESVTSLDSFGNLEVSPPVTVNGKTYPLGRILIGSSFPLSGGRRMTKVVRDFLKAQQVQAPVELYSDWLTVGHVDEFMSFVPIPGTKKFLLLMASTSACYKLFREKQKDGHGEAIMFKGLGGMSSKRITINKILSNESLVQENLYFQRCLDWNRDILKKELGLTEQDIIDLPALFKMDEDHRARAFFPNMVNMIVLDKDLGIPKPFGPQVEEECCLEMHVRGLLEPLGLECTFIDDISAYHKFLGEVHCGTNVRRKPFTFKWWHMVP

As for `Cn1c(-c2cc3ccccc3n2Cc2cccnc2)nc2cc(C(=O)N3CCC[C@@H](N)C3)ccc21` [Example 15, (3R)-1-({1-Methyl-2-[1-(3-pyridinylmethyl)-1H-indol-2-yl]-1H-benzimidazol-5-yl}carbonyl)-3-piperidinamine], the IC50 in test [1] was 0.0398 to 0.398 µM and 0.398 µM.

`Cn1c(-c2cc3ccccc3n2Cc2ccccc2)nc2cc(C(=O)N3CCC[C@@H](N)C3)ccc21` [Example 24, (3R)-1-({1-Methyl-2-[1-(phenylmethyl)-1H-indol-2-yl]-1H-benzimidazol-5-yl}carbonyl)-3-piperidinamine]: the IC50 in test [1] was 0.0398 to 0.398 µM and 0.158 µM.

For the compound `Cn1cc(Cn2c(-c3nc4cc(C(=O)N5CCC[C@@H](N)C5)ccc4n3C)cc3ccccc32)cn1` [Example 20b, (3R)-1-[(1-Methyl-2-{1-[(1-methyl-1H-pyrazol-4-yl)methyl]-1H-indol-2-yl}-1H-benzimidazol-5-yl)carbonyl]-3-piperidinamine], in test [1], the IC50 was 0.0398 to 0.398 µM and 0.398 µM.

On to `Cn1c(-c2cc3ccccc3n2CC2CC2)nc2cc(C(=O)N3CC[C@@H](O)[C@@H](N)C3)ccc21` [Example 65, ((3S,4R)-3-Amino-4-hydroxypiperidin-1-yl)(2-(1-(cyclopropylmethyl)-1H-indol-2-yl)-1-methyl-1H-benzo[d]imidazol-5-yl)methanone], for which the IC50 is more than 79.4 µM in test [2]; 0.0398 to 0.398 µM and 0.158 µM in test [1].
